Key:
Format in all cases: in vivo
transplanted rice = test: Test Example 1: preemergence treatment under submerged conditions, effect on crop; details: dose 2.52 g/a
Method in brief: (§1)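 Scoring 0 (<5% mortality) to 5 (≥90%) was done three weeks after preemergence application to the water surface of submerged (4 cm) alluvial soil, doses given as g per are. Weeds were seeded and 2.5-leaf rice transplanted on the treatment day; greenhouse at 25–30 °C.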

bulrush [1] = test: Test Example 2: herbicidal effects during the vegetation period under submerged conditions; details: treatment during the vegetation period under submerged conditions; dose 2.52 g/a
Method in brief: (§2)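 Barnyardgrass, bulrush and ducksalad were co-sown in alluvial soil flooded to 4 cm and grown in a greenhouse at 25 to 30° C. At the 1- or 2-leaf stage, water-diluted emulsifiable concentrates went onto the water surface at set doses (g/a). Herbicidal effect was scored three weeks later on a graded scale.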

barnyardgrass [2] = test: as above; details: treatment during the vegetation period under submerged conditions; dose 2.52 g/a
Method in brief: as §2

ducksalad [3] = test: as above; details: treatment during the vegetation period under submerged conditions; dose 2.52 g/a
Method in brief: as §2

bulrush [4] = test: Test Example 1: herbicidal effects in preemergence treatment under submerged conditions; details: dose 2.52 g/a
Method in brief: as §1

barnyardgrass [5] = test: as above; details: dose 2.52 g/a
Method in brief: as §1

ducksalad [6] = test: as above; details: dose 2.52 g/a
Method in brief: as §1

common chickweed [7] = test: Test Example 3: herbicidal effects in soil treatment; details: dose 3.2 g/a
Method in brief: (§3)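 Seeds were sown in sterilized diluvial soil and covered with about 1.5 cm of soil. Compounds, formulated as emulsifiable concentrates and diluted with water, were sprayed evenly over the soil surface at set doses in g/a. Herbicidal effect was scored on a rating scale three weeks later.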

posumbu knotweed [8] = test: as above; details: dose 3.2 g/a
Method in brief: as §3

large crabgrass [9] = test: as above; details: dose 3.2 g/a
Method in brief: as §3

beadstraw [10] = test: as above; details: dose 3.2 g/a
Method in brief: as §3

giant foxtail [11] = test: as above; details: dose 3.2 g/a
Method in brief: as §3

redroot pigweed [12] = test: as above; details: dose 3.2 g/a
Method in brief: as §3

common lambsquater [13] = test: as above; details: dose 3.2 g/a
Method in brief: as §3

water foxtail [14] = test: as above; details: dose 3.2 g/a
Method in brief: as §3

barnyardgrass [15] = test: as above; details: dose 3.2 g/a
Method in brief: as §3

Italian ryegrass [16] = test: as above; details: dose 3.2 g/a
Method in brief: as §3

wild oat [17] = test: as above; details: dose 3.2 g/a
Method in brief: as §3

common ragweed [18] = test: as above; details: dose 3.2 g/a
Method in brief: as §3

common chickweed [19] = test: Test Example 4: herbicidal effect in foliage treatment; details: dose 3.2 g/a
Method in brief: (§4)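 Doses are given in grams per are of applied compound, sprayed as water-diluted emulsifiable concentrate onto foliage of 14-day-old plants grown at 25 to 30° C. Herbicidal activity was assessed visually on a rating scale after three weeks.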

posumbu knotweed [20] = test: as above; details: dose 3.2 g/a
Method in brief: as §4

large crabgrass [21] = test: as above; details: dose 3.2 g/a
Method in brief: as §4

beadstraw [22] = test: as above; details: dose 3.2 g/a
Method in brief: as §4

giant foxtail [23] = test: as above; details: dose 3.2 g/a
Method in brief: as §4

redroot pigweed [24] = test: as above; details: dose 3.2 g/a
Method in brief: as §4

common lambsquater [25] = test: as above; details: dose 3.2 g/a
Method in brief: as §4

water foxtail [26] = test: as above; details: dose 3.2 g/a
Method in brief: as §4

barnyardgrass [27] = test: as above; details: dose 3.2 g/a
Method in brief: as §4

Italian ryegrass [28] = test: as above; details: dose 3.2 g/a
Method in brief: as §4

wild oat [29] = test: as above; details: dose 3.2 g/a
Method in brief: as §4

velvetleaf [30] = test: as above; details: dose 3.2 g/a
Method in brief: as §4

common ragweed [31] = test: as above; details: dose 3.2 g/a
Method in brief: as §4

velvetleaf [32] = test: Test Example 3: herbicidal effects in soil treatment; details: dose 3.2 g/a
Method in brief: as §3

[33] = three weeks after the application

With `CCOC(=O)N(c1ccccc1CN1COC(C(F)(F)F)CC1=O)S(=O)(=O)C(F)(F)F` (stereo not shown) [II-15] the “a: transplanted rice, effect on crop (evaluation scale 0-5)” value (transplanted rice) was 0 (mortality of less than 5% (almost ineffective)), the “B: bulrush, herbicidal effect (evaluation scale 0-5)” value (shortened to “B: bulrush, herbicidal effect”) (bulrush [1]) was 5 (mortality of 90% or above (nearly complete death)) and the “A: barnyardgrass, herbicidal effect (evaluation scale 0-5)” value (barnyardgrass [2]) was 5 (mortality of 90% or above (nearly complete death)). The “C: ducksalad, herbicidal effect (evaluation scale 0-5)” value (“C: ducksalad, herbicidal effect” for short) (ducksalad [3]) was 5 (mortality of 90% or above (nearly complete death)), the “B: bulrush, herbicidal effect” value (bulrush [4]) was 5 (mortality of 90% or above (nearly complete death)) and the “A: barnyardgrass, herbicidal effect (evaluation scale 0-5)” value (barnyardgrass [5]) was 5 (mortality of 90% or above (nearly complete death)). For the same molecule, the “C: ducksalad, herbicidal effect” value (ducksalad [6]) was 5 (mortality of 90% or above (nearly complete death)), the “N: common chickweed, herbicidal effect (evaluation scale 0-5)” value (common chickweed [7]) was 4 (mortality of at least 70% and less than 90%) and the “M: posumbu knotweed, herbicidal effect (evaluation scale 0-5)” value (posumbu knotweed [8]) was 0 (mortality of less than 5% (almost ineffective)). The “D: large crabgrass, herbicidal effect (evaluation scale 0-5)” value (large crabgrass [9]) was 5 (mortality of 90% or above (nearly complete death)), the “O: beadstraw, herbicidal effect (evaluation scale 0-5)” value (beadstraw [10]) was 0 (mortality of less than 5% (almost ineffective)) and the “E: giant foxtail, herbicidal effect (evaluation scale 0-5)” value (giant foxtail [11]) was 0 (mortality of less than 5% (almost ineffective)). For the same molecule, the “K: redroot pigweed, herbicidal effect (evaluation scale 0-5)” value (redroot pigweed [12]) was 4 (mortality of at least 70% and less than 90%), the “L: common lambsquater, herbicidal effect (evaluation scale 0-5)” value (common lambsquater [13]) was 4 (mortality of at least 70% and less than 90%) and the “G: water foxtail, herbicidal effect (evaluation scale 0-5)” value (water foxtail [14]) was 5 (mortality of 90% or above (nearly complete death)). For the same molecule, the “A: barnyardgrass, herbicidal effect (evaluation scale 0-5)” value (barnyardgrass [15]) was 4 (mortality of at least 70% and less than 90%), the “H: Italian ryegrass, herbicidal effect (evaluation scale 0-5)” value (Italian ryegrass [16]) was 4 (mortality of at least 70% and less than 90%) and the “F: wild oat, herbicidal effect (evaluation scale 0-5)” value (wild oat [17]) was 0 (mortality of less than 5% (almost ineffective)). The “J: common ragweed, herbicidal effect (evaluation scale 0-5)” value (common ragweed [18]) was 4 (mortality of at least 70% and less than 90%), the “N: common chickweed, herbicidal effect” value (common chickweed [19]; three weeks after application) was 4 (mortality of at least 70% and less than 90%) and the “M: posumbu knotweed, herbicidal effect” value (posumbu knotweed [20]; three weeks after application) was 3 (mortality of at least 40% and less than 70%). For the same molecule, the “D: large crabgrass, herbicidal effect” value (large crabgrass [21]; three weeks after application) was 4 (mortality of at least 70% and less than 90%), the “O: beadstraw, herbicidal effect” value (beadstraw [22]; three weeks after application) was 4 (mortality of at least 70% and less than 90%) and the “E: giant foxtail, herbicidal effect” value (giant foxtail [23]; three weeks after application) was 3 (mortality of at least 40% and less than 70%). The “K: redroot pigweed, herbicidal effect” value (redroot pigweed [24]; three weeks after application) was 0 (mortality of less than 5% (almost ineffective)), the “L: common lambsquater, herbicidal effect” value (common lambsquater [25]; three weeks after application) was 4 (mortality of at least 70% and less than 90%) and the “G: water foxtail, herbicidal effect” value (water foxtail [26]; three weeks after application) was 5 (mortality of 90% or above (nearly complete death)). For the same molecule, the “A: barnyardgrass, herbicidal effect” value (barnyardgrass [27]; three weeks after application) was 4 (mortality of at least 70% and less than 90%), the “H: Italian ryegrass, herbicidal effect” value (Italian ryegrass [28]; three weeks after application) was 1 (mortality of at least 5% and less than 20%) and the “F: wild oat, herbicidal effect” value (wild oat [29]; three weeks after application) was 0 (mortality of less than 5% (almost ineffective)). The “I: velvetleaf, herbicidal effect” value (velvetleaf [30]; three weeks after application) was 5 (mortality of 90% or above (nearly complete death)) and the “J: common ragweed, herbicidal effect” value (common ragweed [31]; three weeks after application) was 3 (mortality of at least 40% and less than 70%).
For `CCOC(=O)N(c1ccccc1CN1CSCCC1=O)S(=O)(=O)C(F)(F)F` [II-79], the “a: transplanted rice, effect on crop (evaluation scale 0-5)” value (transplanted rice) was 0 (mortality of less than 5% (almost ineffective)), the “B: bulrush, herbicidal effect” value (bulrush [1]) was 5 (mortality of 90% or above (nearly complete death)) and the “A: barnyardgrass, herbicidal effect (evaluation scale 0-5)” value (barnyardgrass [2]) was 5 (mortality of 90% or above (nearly complete death)). The “C: ducksalad, herbicidal effect” value (ducksalad [3]) was 5 (mortality of 90% or above (nearly complete death)), the “B: bulrush, herbicidal effect” value (bulrush [4]) was 5 (mortality of 90% or above (nearly complete death)) and the “A: barnyardgrass, herbicidal effect (evaluation scale 0-5)” value (barnyardgrass [5]) was 5 (mortality of 90% or above (nearly complete death)). For the same molecule, the “C: ducksalad, herbicidal effect” value (ducksalad [6]) was 5 (mortality of 90% or above (nearly complete death)), the “herbicidal effect, N: common chickweed” value (common chickweed [7]) was 4 (mortality of at least 70% and less than 90%) and the “herbicidal effect, D: large crabgrass” value (large crabgrass [9]) was 5 (mortality of 90% or above (nearly complete death)). The “herbicidal effect, O: beadstraw” value (beadstraw [10]) was 0 (mortality of less than 5% (almost ineffective)), the “herbicidal effect, E: giant foxtail” value (giant foxtail [11]) was 5 (mortality of 90% or above (nearly complete death)) and the “herbicidal effect, K: redroot pigweed” value (redroot pigweed [12]) was 2 (mortality of at least 20% and less than 40%). The “herbicidal effect, L: common lambsquater” value (common lambsquater [13]) was 3 (mortality of at least 40% and less than 70%), the “herbicidal effect, G: water foxtail” value (water foxtail [14]) was 5 (mortality of 90% or above (nearly complete death)) and the “herbicidal effect, A: barnyardgrass” value (barnyardgrass [15]) was 5 (mortality of 90% or above (nearly complete death)). The “herbicidal effect, H: Italian ryegrass” value (Italian ryegrass [16]) was 3 (mortality of at least 40% and less than 70%), the “herbicidal effect, F: wild oat” value (wild oat [17]) was 0 (mortality of less than 5% (almost ineffective)) and the “herbicidal effect, I: velvetleaf” value (velvetleaf [32]) was 5 (mortality of 90% or above (nearly complete death)). The “herbicidal effect, J: common ragweed” value (common ragweed [18]) was 4 (mortality of at least 70% and less than 90%), the “N: common chickweed, herbicidal effect” value (common chickweed [19]; [33]) was 4 (mortality of at least 70% and less than 90%) and the “M: posumbu knotweed, herbicidal effect” value (posumbu knotweed [20]; [33]) was 4 (mortality of at least 70% and less than 90%). For the same molecule, the “D: large crabgrass, herbicidal effect” value (large crabgrass [21]; [33]) was 4 (mortality of at least 70% and less than 90%), the “O: beadstraw, herbicidal effect” value (beadstraw [22]; [33]) was 4 (mortality of at least 70% and less than 90%) and the “E: giant foxtail, herbicidal effect” value (giant foxtail [23]; [33]) was 4 (mortality of at least 70% and less than 90%). For the same molecule, the “K: redroot pigweed, herbicidal effect” value (redroot pigweed [24]; [33]) was 1 (mortality of at least 5% and less than 20%), the “L: common lambsquater, herbicidal effect” value (common lambsquater [25]; [33]) was 3 (mortality of at least 40% and less than 70%) and the “G: water foxtail, herbicidal effect” value (water foxtail [26]; [33]) was 5 (mortality of 90% or above (nearly complete death)). For the same molecule, the “A: barnyardgrass, herbicidal effect” value (barnyardgrass [27]; [33]) was 5 (mortality of 90% or above (nearly complete death)), the “H: Italian ryegrass, herbicidal effect” value (Italian ryegrass [28]; [33]) was 3 (mortality of at least 40% and less than 70%) and the “F: wild oat, herbicidal effect” value (wild oat [29]; [33]) was 0 (mortality of less than 5% (almost ineffective)). For the same molecule, the “I: velvetleaf, herbicidal effect” value (velvetleaf [30]; [33]) was 4 (mortality of at least 70% and less than 90%) and the “J: common ragweed, herbicidal effect” value (common ragweed [31]; [33]) was 4 (mortality of at least 70% and less than 90%).
